How the values were obtained:
[1] = Concentration-dependent 1H NMR and DOSY NMR (aggregation); format: physicochemical; details: DOSY NMR and spectra at increasing concentrations
From the text: As a simple way to characterize the GAG binding behavior, we applied the method previously described by Jiao et al., using the cationic dye known as methylene blue (MB) in a colorimetric competition assay. To compare with our previous results for SICHI, we performed similar experimental design and data analysis, using the charge excess at 50% of MB displacement (CE50) as the parameter to compare the respective binding abilities. The four peptoids rendered very similar CE50 values (CE50 = 1.5–1.8, Figure 6a), reflecting the equivalent charge states. However, CSIC02 reached saturation (complete MB displacement) with a lower number of equivalents, which can be due to its slightly larger molecular size that may cause a more efficient interference with MB binding. Next, we assessed the integrity and solubility of CSIC02 by NMR. To characterize its tendency to aggregate in aqueous solution, NMR spectra at increasing concentrations were acquired which show the same sharp signals under all conditions (Figure S13). […] Direct binding of CSIC02 to GAGs was qualitatively assessed by specific NMR experiments.
Figure S13. Concentration-dependent NMR spectra of CSIC02 and 1H DOSY NMR spectrum of 0.2 mM CSIC02 in presence of 0.5 mM caffeine. […] The spectra were processed with MNova software and the measured diffusion coefficients from DOSY […]

[2] = Potentiometric titration (protonation state); format: physicochemical; details: 25 °C, 0.15 M NaCl
Experimental: UV absorbance was measured using a SpectraMax M5 spectrophotometer (Molecular Devices, Sunnyvale, CA, USA). The experiments were performed with a 10 μM methylene blue (MB) solution in 5 mM Tris-HCl buffer at pH 7.5, to which increasing amounts of heparin were added to saturation of the MB dye. For the competition assays, solutions of MB and heparin at fixed concentrations were titrated with increasing amounts of SICHI or CSIC02–04 peptoids. Then, the relative increase in absorbance at 665 nm, due to release of MB from the MB–heparin complex when adding either SICHI or CSIC02–04 to the cuvette, can be plotted vs. the charge ratio considering their respective concentrations and that all the peptoids have three positive charges, and heparin has four negative charges per disaccharide unit. With this information, the charge excess for 50% of displacement of the MB dye (CE50) for each compound can be calculated for comparison. Potentiometric titrations were carried out in a reaction vessel thermostated with a water bath at 25.0 ± 0.1 °C under nitrogen atmosphere, and 0.15 M NaCl was used as the supporting electrolyte. The titrant was delivered by a precision microburette. The potentiometric measurements were made with a pH-mV meter. The reference electrode was an Ag/AgCl electrode in saturated KCl solution. The acquisition of the emf data was performed with the computer program Tiamo 2.3.1. […]

CCN(CC)CCN(CC(=O)N(CCN1CCCC1)CC(=O)N(CCC1CCCN1C)CC(N)=O)C(=O)OCc1ccccc1 (centres unmarked) [CSIC02]
tendency to aggregate in aqueous solution [1]: absence of higher molecular weight aggregates | protonation state at neutral pH [2]: triprotonated
